This note sets out measurements from patent US9708370B2, “Azapeptides as CD36 binding compounds” (VALORISATION-RECHERCHE, LIMITED PARTNERSHIP, priority 2007, dated 2017).

Read-outs that look alike come from different tables or passages of the source. Starred links: 1 amine or outer side, 2 acyl side, 3 side chain; linkers in the order of their positions; H or OH if unused. Non-standard residues stand in square brackets, D forms with d. Residues, ends and D or L forms follow the SMILES beside them. azaTyr = O=C(N(Cc1ccc(O)cc1)N[*:1])[*:2]; azaPhe = O=C(N(Cc1ccccc1)N[*:1])[*:2]; X2 = O=C(N(CCc1ccccc1)N[*:1])[*:2]; azaLeu = CC(C)CN(N[*:1])C(=O)[*:2]; X1 = O=C(N(CC1CCCCC1)N[*:1])[*:2]; azaPro = O=C(N1CCCN1[*:1])[*:2]

The target in one test is CD36 (Rattus norvegicus (Rat), UniProt Q07969). The test is described as follows: CD36 receptor covalent photolabelling binding assay, competition with [125I]Tyr-Bpa-Ala-hexarelin on rat cardiac membranes. The conditions noted are these: for binding activity/affinity at CD36 in words: compared with parent peptide GHRP-6 or hexarelin. The procedure: The hearts from Sprague Dawley rats (300 g-325 g) from Charles River, used as a source of cardiac membranes, were prepared as follows: the heart was washed with ice-cold saline, and fatty and connective tissue was removed. The tissue was cut into small pieces with scissors and placed in a Sorvall centrifuge tube containing 5 ml/g of fresh tissue of Buffer A (10 mM NaHCO3, 5 mM NaN3, 10 μM Pefabloc, 0.1 μM Aprotinin, 1 μM Pepstatin A, 1 μM Leupeptin, pH 7.0). The suspension was homogenized with a Polytron at low speed, 3×15 sec. The homogenate was centrifuged at 8 700×g for 20 min and the supernatant was put on ice. The pellet was resuspended and homogenized with a Glass-teflon Potter by 5 strokes. The homogenate was centrifuged at 8 700×g for 10 min and this supernatant was combined with the first supernatant. The supernatant fluid was centrifuged at 35 000×g for 20 min, yielding a second pellet fraction that was suspended thoroughly in a glass homogenizer with a Teflon pestle in 20 ml/g of fresh tissue of Buffer B (20 mM Tris-maleate, 0.6M KCl, pH 6.8). The resulting suspension was centrifuged again at 35 000×g for 60 min. The third pellet fraction was resuspended thoroughly in a glass homogenizer with a Teflon pestle in 20 ml/g of fresh tissue of Buffer C (10 mM Tris/HCl buffer pH 7.4) followed with another centrifugation at 35 000×g for 60 min. The harvested precipitate was then suspended in a small volume (1-2 ml/g of fresh tissue) of 50 mM Tris/HCl buffer pH 7.4) containing 2 mM EGTA. The resulting membrane preparation was frozen at −80° C. Protein concentration was determined with bicinchoninic acid (BCA) method, using BSA as standard.
The iodination procedure was performed in the darkness. […] The reaction was started by adding 5 ul (3 nmol) of H2O2. The incubation was carried out at 22° C. for 5 min. The addition of H2O2 was repeated twice with 5 min incubation each time. The reaction was stopped with the addition of 1.4 ml of 0.1% TFA. The iodinated peptide was purified on a reverse-phase Vydac C18 column with a 60 min linear gradient (1 ml/min) from 20% to 50% acetonitrile (90%) in 0.1% TFA (10%).
Nonspecific binding was defined as binding not displaced by 50 μM corresponding peptide. All peptide containing solutions were diluted in Buffer B. Buffer A and B were degassed under vacuum, and used in capped tubes in order to minimize lipid peroxydation. Before the incubation period, all tubes were put under a low flow of nitrogen. All material was kept on ice and the binding assay was performed in darkness. After an incubation period of 60 min at 22° C. […] After centrifugation at 12 000×g for 15 minutes, the pellets were resuspended in 150 μl of sample buffer (62 mM Tris-HCl, pH 6.8, 2% SDS, 10% glycerol, 15% 2-mercapto-ethanol, and 0.05% bromophenol blue), and boiled for 5 min prior to being subjected to electrophoresis. Proteins (200 μg/100 μl) were separated on 7.5% SDS-PAGE (45 V overnight). The gels resulting from SDS/PAGE were fixed, colored in Coomassie Brilliant Blue R-250, dried, exposed to a storage phosphor intensifying screen (Amersham Biosciences), and analysed by using a Typhoon PhosphorImager (Amersham Biosciences) and ImageQuant 5.0 software to establish competition curves. Protein bands were quantified by densitometry. The covalent binding signal of 87 kDa was analyzed by densitometry using Typhoon Phospholmager™ (Typhoon, Amersham Biosciences) and ImageQuant 5.0® software to set competition curves.
Specific binding activities were defined as the ratio of the density of the protein band to that of a non-specific band. Results are expressed as the percentage of the density of the […] to that of the total binding band.

The target in the next test is human GHS-R1a (Homo sapiens (Human), UniProt Q92847). The test is described as follows: GHS-R1a binding assay, competition with 125I-ghrelin on membranes of LLC-PK1 cells expressing human GHS-R1a. To be noted: for binding affinity for GHS-R1a receptor in words: compared with GHRP-6. Here is the method: Rat ghrelin was radio iodinated with Na^125I using the lodo-Beads iodination reagent (Pierce #28665). Briefly, an lodo-bead was incubated with 2 mCi of Na^125I (Amersham) in 100 μL of 50 mM sodium phosphate buffer, pH 7.0 for 5 min at 22° C. The reaction was started by adding 20 nmol of the peptide (1 mM in 0.1 M acetic acid). The tube was incubated for 10 min at 22° C. The iodination was terminated by adding 1 mL of 0.1% TFA. The mono-iodinated peptide was purified by reverse-phase HPLC using a Vydac C18 ([…]) column (30 cm×0.39 cm) in combination with a binary elution system of (A) 0.1% TFA in H2O and (B) 0.1% TFA, 10% H2O, 90% acetonitrile. Fractions of 0.5 mL were collected and analyzed by its radioactive content.
Cells (1.4×10^6) were plated in 100 mm plates and transfected 24 h later with pCDNA3.1-hGHS-R1a (UMR cDNA Resource Center #GHSR0A0000) following the CaHPO4 precipitation method. Briefly, 40 μg of plasmid DNA was diluted in 500 μL of sterile H2O and added to an equal volume of a 4× CaCl2, pH 7.9 solution (2 mM Tris-HCl, 0.2 mM EDTA, 500 mM CaCl2). The mixture was then added slowly with air bubbles to 1 mL of 2× Hepes-buffered saline, pH 7.1 (50 mM Hepes, 280 mM NaCl, 1.5 mM Na2HPO4). After 30 min at room temperature, 1 mL was distributed evenly over the cells and let overnight. The medium was changed the next morning and the membrane preparation was made two days later.
Cells were washed twice with PBS and once with ice-cold homogenization buffer (50 mM Tris-HCl, pH 7.3, 5 mM MgCl2, 2.5 mM EDTA, 30 μg/ml bacitracin). Cells were scraped and harvested in 1.5 mL tubes. Cells were then lysed by temperature shock with two freeze/thaw cycles in liquid nitrogen. The tubes were centrifuged at 14000 g for 20 min. Pellets were resuspended in homogenization buffer and stored at −80° C. until used. Total protein concentrations were determined with the BCA protein assay kit (Pierce).
Competition experiments were performed by incubating 50 μg of LLC-PK1 membranes expressing human GHS-R1a with 15 fmol of ^125I-Ghrelin and increasing concentrations of unlabeled ghrelin or with increasing concentrations of azapeptides derivatives in 0.5 mL of binding buffer. Bound radiolabelled ligand was separated from free by filtration on Whatman GF/C filters pretreated with a 1% polyethylenimine solution. Filters were washed with 2×3 mL of washing buffer (50 mM Tris-HCl, pH 7.3, 10 mM MgCl2, 2.5 mM EDTA, 0.015% Triton X-100). Filters were counted in a LKB gamma counter. Curves were analyzed using Prism software (GraphPad Software Inc).

The mark [1] stands for this setting: Table 6, read-out: IC50 Binding CD36.
[2] abbreviates: Table 5, read-out: IC50 Binding GHS-R1a.
[3] abbreviates: Table 3, rat cardiac membranes, [125I]Tyr-Bpa-Ala-hexarelin as radioligand, read-out: IC50, binding affinity of aza peptide derivatives towards CD36.
Setting [4] is: Table 4, LLCPK-1 membranes overexpressing GHS-R1a, radioiodinated (1-28) rat ghrelin as tracer, read-out: EC50 (text: IC50 values from competition curves in GHS-R1a radioreceptor assay).

Sequence of CD36 (Q07969 whole entry): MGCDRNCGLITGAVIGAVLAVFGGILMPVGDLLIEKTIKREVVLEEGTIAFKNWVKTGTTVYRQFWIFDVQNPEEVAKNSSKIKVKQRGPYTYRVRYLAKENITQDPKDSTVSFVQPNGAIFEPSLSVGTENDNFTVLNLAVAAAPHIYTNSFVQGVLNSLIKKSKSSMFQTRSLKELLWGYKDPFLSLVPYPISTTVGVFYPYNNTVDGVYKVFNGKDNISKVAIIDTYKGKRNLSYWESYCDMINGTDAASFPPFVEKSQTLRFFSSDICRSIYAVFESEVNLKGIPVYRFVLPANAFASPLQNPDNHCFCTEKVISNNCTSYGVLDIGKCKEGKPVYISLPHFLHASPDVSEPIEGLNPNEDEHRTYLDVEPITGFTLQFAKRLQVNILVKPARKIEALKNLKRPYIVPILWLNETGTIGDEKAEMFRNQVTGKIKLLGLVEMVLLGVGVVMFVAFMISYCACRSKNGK
Sequence of human GHS-R1a (Q92847 whole entry): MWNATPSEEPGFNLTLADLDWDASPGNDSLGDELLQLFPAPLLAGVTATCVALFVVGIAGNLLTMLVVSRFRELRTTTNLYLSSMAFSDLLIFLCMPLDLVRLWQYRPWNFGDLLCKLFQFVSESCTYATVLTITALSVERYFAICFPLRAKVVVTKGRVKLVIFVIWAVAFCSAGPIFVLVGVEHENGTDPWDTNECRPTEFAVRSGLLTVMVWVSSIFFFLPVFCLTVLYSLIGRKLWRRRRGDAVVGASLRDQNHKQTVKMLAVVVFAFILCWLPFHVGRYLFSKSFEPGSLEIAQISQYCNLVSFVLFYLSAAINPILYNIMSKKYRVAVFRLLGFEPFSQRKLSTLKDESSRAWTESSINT

Take `CC(C)CN(NC(=O)[C@@H](Cc1c[nH]c2ccccc12)NC(=O)[C@H](C)N)C(=O)N[C@@H](Cc1c[nH]c2ccccc12)C(=O)N[C@H](Cc1ccccc1)C(=O)N[C@@H](CCCCN)C(N)=O` [CP-2B (v), Ala-D-Trp-azaLeu-Trp-D-Phe-Lys-NH2] (H-A[dW][azaLeu]W[dF]K-NH2): the IC50 (as a rule, the concentration at which inhibition is half-maximal) at CD36 (setting [1]) worked out at 3.68 µM. In addition, the “binding activity/affinity at CD36 in words” value at CD36 was “retained significant activity similar to the parent peptide”; on CD36 (listed as CP-2B(v)) it was “without major change”. Moreover, the “binding affinity for GHS-R1a receptor in words” value at human GHS-R1a is recorded as “decreased drastically”.

For `C[C@H](NC(=O)[C@@H](Cc1c[nH]c2ccccc12)NC(=O)[C@@H](N)Cc1cnc[nH]1)C(=O)N[C@@H](Cc1c[nH]c2ccccc12)C(=O)N1CCCN1C(=O)N[C@@H](CCCCN)C(N)=O` [CP-AP-2, His-D-Trp-Ala-Trp-AzaPro-Lys-NH2] (H-H[dW]AW[azaPro]K-NH2), the IC50 on CD36 (setting [1]) and at human GHS-R1a (setting [2]) was above 10 µM in each case.

Consider `C[C@H](NC(=O)[C@@H](Cc1c[nH]c2ccccc12)NC(=O)[C@@H](N)Cc1cnc[nH]1)C(=O)N1CCCN1C(=O)N[C@H](Cc1ccccc1)C(=O)N[C@@H](CCCCN)C(N)=O` [CP-AP-3, His-D-Trp-Ala-azaPro-D-Phe-Lys-NH2] (H-H[dW]A[azaPro][dF]K-NH2), for which the IC50 at CD36 (setting [1]) and on human GHS-R1a (setting [2]) was above 10 µM each time.

Regarding `C[C@H](NC(=O)[C@@H](Cc1c[nH]c2ccccc12)NC(=O)[C@@H](N)Cc1cnc[nH]1)C(=O)NN(Cc1ccccc1)C(=O)N[C@H](Cc1ccccc1)C(=O)N[C@@H](CCCCN)C(N)=O` [DBG253-1, His-D-Trp-Ala-azaPhe-D-Phe-Lys-NH2] (H-H[dW]A[azaPhe][dF]K-NH2), the IC50 was 1.34 µM at CD36 (setting [3]) and 2.77 µM at human GHS-R1a (setting [4]). Besides, the “binding activity/affinity at CD36 in words” value on CD36 is “maintaining the binding activity”. Further, the “binding affinity for GHS-R1a receptor in words” value at human GHS-R1a was “reducing the binding affinity”.

On to `CC(C)CN(NC(=O)[C@H](C)NC(=O)[C@@H](Cc1c[nH]c2ccccc12)NC(=O)[C@@H](N)Cc1cnc[nH]1)C(=O)N[C@H](Cc1ccccc1)C(=O)N[C@@H](CCCCN)C(N)=O` [DBG253-2, His-D-Trp-Ala-azaLeu-D-Phe-Lys-NH2] (H-H[dW]A[azaLeu][dF]K-NH2), for which the IC50 at CD36 (setting [3]) stood at 2890 µM; at human GHS-R1a (setting [4]) it was 19.5 µM.

Turning to `C[C@H](NC(=O)[C@@H](Cc1c[nH]c2ccccc12)NC(=O)[C@@H](N)Cc1cnc[nH]1)C(=O)NN(CC1CCCCC1)C(=O)N[C@H](Cc1ccccc1)C(=O)N[C@@H](CCCCN)C(N)=O` [DBG253-4, His-D-Trp-Ala-azaCha-D-Phe-Lys-NH2] (H-H[dW]A[X1][dF]K-NH2), the IC50 at CD36 (setting [3]) is 2100 µM; at human GHS-R1a (setting [4]), 4.28 µM.

For `C[C@H](NC(=O)[C@@H](Cc1c[nH]c2ccccc12)NC(=O)[C@@H](N)Cc1cnc[nH]1)C(=O)NN(CCc1ccccc1)C(=O)N[C@H](Cc1ccccc1)C(=O)N[C@@H](CCCCN)C(N)=O` [DBG253-5, His-D-Trp-Ala-azahomoPhe-D-Phe-Lys-NH2] (H-H[dW]A[X2][dF]K-NH2), the IC50 on CD36 (setting [3]) is above 10 µM; on human GHS-R1a (setting [4]), 3.74 µM.

Consider `C[C@H](NC(=O)[C@@H](Cc1c[nH]c2ccccc12)NC(=O)[C@@H](N)Cc1cnc[nH]1)C(=O)N[C@@H](Cc1ccc(O)cc1)C(=O)N[C@H](Cc1ccccc1)C(=O)N[C@@H](CCCCN)C(N)=O` [DBG253-7, His-D-Trp-Ala-Tyr-D-Phe-Lys-NH2] (H-H[dW]AY[dF]K-NH2), for which the IC50 on CD36 (setting [3]) is 13.2 µM; on human GHS-R1a (setting [4]) it was 0.771 µM.

For `C[C@H](NC(=O)[C@@H](Cc1c[nH]c2ccccc12)NC(=O)[C@@H](N)Cc1cnc[nH]1)C(=O)N[C@H](Cc1ccc(O)cc1)C(=O)N[C@H](Cc1ccccc1)C(=O)N[C@@H](CCCCN)C(N)=O` [DBG253-8, His-D-Trp-Ala-D-Tyr-D-Phe-Lys-NH2] (H-H[dW]A[dY][dF]K-NH2), the IC50 at CD36 (setting [3]) amounted to 12 µM; on human GHS-R1a (setting [4]) it was 3.25 µM.

In the case of `C[C@H](NC(=O)N(Cc1ccccc1)NC(=O)[C@@H](N)Cc1cnc[nH]1)C(=O)N[C@@H](Cc1c[nH]c2ccccc12)C(=O)N[C@H](Cc1ccccc1)C(=O)N[C@@H](CCCCN)C(N)=O` [DBG253-9, His-azaPhe-Ala-Trp-D-Phe-Lys-NH2] (H-H[azaPhe]AW[dF]K-NH2), the IC50 at CD36 (setting [3]) was found to be 72.4 µM; on human GHS-R1a (setting [4]), 16.1 µM.

With `C[C@H](NC(=O)N(CC1CCCCC1)NC(=O)[C@@H](N)Cc1cnc[nH]1)C(=O)N[C@@H](Cc1c[nH]c2ccccc12)C(=O)N[C@H](Cc1ccccc1)C(=O)N[C@@H](CCCCN)C(N)=O` [DBG253-13, His-azaCha-Ala-Trp-D-Phe- Lys-NH2] (H-H[X1]AW[dF]K-NH2), the IC50 on CD36 (setting [3]) is above 10 µM; on human GHS-R1a (setting [4]), 5.49 µM.

Consider `C[C@H](NC(=O)[C@@H](Cc1c[nH]c2ccccc12)NC(=O)[C@@H](N)Cc1ccccc1)C(=O)NN(Cc1ccc(O)cc1)C(=O)N[C@H](Cc1ccccc1)C(=O)N[C@@H](CCCCN)C(N)=O` [ZS554-F29, Phe-D-Trp-Ala-azaTyr-D-Phe-Lys-NH2] (H-F[dW]A[azaTyr][dF]K-NH2), for which the results for the IC50 on CD36 (setting [1]) and on human GHS-R1a (setting [2]) were 11.8 µM and above 10 µM, respectively.
